In data set [1] the test system is PI3K/Akt/mTOR signaling pathway protein. As to the kind of experiment: Western blot of PI3K/Akt/mTOR pathway proteins in A549 cells (Test Example 2). It is filed as cell-based, human. The note with it: 24 h; for activation of PI3K protein, 4EBP1 protein, mTOR protein / expression of Akt protein and S6K1 protein and of their activated proteins: Western blot. On the procedure: A549 cells were purchased from American Type Culture Collection (ATCC, Manassas, Va., USA). The cells were cultured in a DMEM medium containing 10% fetal bovine serum, 2% glutamine and penicillin (100 U/ml) in an incubator at 37° C. with 5% CO2. The cells used in the experiment were all cells in logarithmic phase.
A549 was an adherent cell, cells in logarithmic growth phase was selected as the experimental group.
1) 60-100 μl of lysate was added to each tube of cells, and was subjected to ice bath in a refrigerator at 4° C. for 1 h; the solution was centrifuged for 10-15 min at 12,000 r/min, the supernatant was suck out to a 0.5 ml EP tube; after the quantitative protein was measured with Bio-Rad, 5× loading buffers were added, and the solution was subjected to boiling water bath for 3-5 min and then was cryopreserved at −80° C.
2) 15%, 12% or 10% acrylamide separation gel was prepared according to Tab. 2-1, and was then mixed with various ingredients successively; once TEMED and AP were added, the mixture was quickly rotated and poured between the two glass plates of the electrophoresis tank, leaving the space required for pouring the stacking gel.
The separation gel was covered with a layer of isopropyl alcohol, and the gel was placed vertically at room temperature for about 30 min.
3) After the separation gel was completely polymerized, the isopropyl alcohol was removed, and the gel was washed with deionized water for 10 times; water was absorbed with filter paper, a stacking gel was prepared according to Tab.2-2, and a clean sample comb was immediately inserted after adding the stacking gel into electrophoresis tank.
4) After the stacking gel was completely polymerized, the electrophoresis instrument was filled with 1×electrophoretic buffer solution, samples were added into sample holes according to a predetermined sequence to start electrophoresis, the voltage was 50-60V when the samples were located at the stacking gel, and the voltage was adjusted to 100-140V when the samples swam to the separation gel.
1) After the SDS polyacrylamide gel electrophoresis was completed, the gel was placed in the transfer buffer and soaked for 30 min. 8 pieces of Whatman 3 MM filter paper and 1 piece of nitrocellulose membrane were cut out, which were consistent with the size of the gel. The nitrocellulose membrane was immersed in methanol for 1 min, and the nitrocellulose membrane was immersed in deionized water to remove air bubbles.
2) The gel was stacked into a “sandwich” shape and inserted into the transfer cell. The gel was connected to the cathode on one side, 100 mA for 3 h.
3) The transferred nitrocellulose membrane entered the Ponceau S staining solution for 5-10 min, and was shaken gently during the period. After the protein band appeared, it was rinsed with deionized water several times, and the position of the standard protein molecular weight was marked with waterproof ink.
4) The membrane was placed in a petri dish with a blocking solution and blocked for 2 h.
5) The blocking solution containing a first antibody was added at 0.1 ml/cm^2 and stayed overnight at 4° C. (dilution multiples of various antibodies are as shown in Tab 0.2-2)
6) The first antibody was recovered, the membrane was rinsed with PBST 3 times for 10 min each time, and was then transferred to a solution containing 150 mM NaCl and 50 mM Tris-HCl (pH 7.5) and shaken for 10 min.
7) A phosphate-free and sodium azide-free blocking solution containing a second antibody was added at 0.1 ml/cm2, wherein the second antibody labeled with horseradish peroxidase was diluted 1,000 times.
8) It was rinsed with 150 mM NaCl and 50 mmol/L Tris-HCl (pH 7.5) solution for 3 times for 10 min each time. Color development was carried out in a dark room with an ECL kit, and pictures were scanned and saved. […]
For orientation: A western blot detects proteins with antibodies after separation by electrophoresis.

For data set [2], the system named is non-small cell lung cancer cells A549. As to the kind of experiment: in vivo tumor growth inhibition.
Data set [3] concerns mouse liver cancer cells H22. The data set is described as follows: in vivo tumor growth inhibition.
The conditions of data set [4]: human body; cited from earlier work.

Regarding `CCC(=O)O[C@@H]1CC(=O)O[C@H](C)C/C=C/C=C/[C@H](O[C@H]2CC[C@H](N(C)C)[C@@H](C)O2)[C@H](C)C[C@H](CC=O)[C@H](O[C@@H]2O[C@H](C)[C@@H](O[C@H]3C[C@@](C)(O)[C@@H](OC(=O)CC(C)C)[C@H](C)O3)[C@H](N(C)C)[C@H]2O)[C@H]1OC` [isovalerylspiramycin III], in data set [1], the “activation of PI3K protein, 4EBP1 protein, mTOR protein” value (shortened to “activation of PI3K protein”) was “inhibit the activation of PI3K protein, 4EBP1 protein and mTOR protein”; the “expression of Akt protein and S6K1 protein and of their activated proteins” value (from here on “expression”) was “inhibit the expression of AKT protein and S6K1 protein and the expression of their activated proteins”.

For `CO[C@@H]1[C@@H](O[C@@H]2O[C@H](C)[C@@H](O[C@H]3C[C@@](C)(O)[C@@H](OC(=O)CC(C)C)[C@H](C)O3)[C@H](N(C)C)[C@H]2O)[C@@H](CC=O)C[C@@H](C)[C@@H](O[C@H]2CC[C@H](N(C)C)[C@@H](C)O2)/C=C/C=C/C[C@@H](C)OC(=O)C[C@H]1O` [isovalerylspiramycin I], in data set [1], the “activation of PI3K protein” value was “inhibit the protein activation of the PI3K/AKT/mTOR signaling pathway”; the “expression” value was “inhibit expression of Akt protein and S6K1 protein and expression of their activated proteins”. In addition, in data set [1] (rapamycin 20 μg/ml as control drug), the “inhibitory effects on AKT, S6K1 and 4EBP1 compared with rapamycin” value was “more excellent inhibitory effects on AKT, S6K1 and 4EBP1”. In data set [2], the “inhibition of tumor growth in vivo” value is recorded as “obvious inhibiting effects”. Besides, the “inhibition of tumor growth in vivo” value in data set [3] is listed as “obvious inhibiting effects”.

Take isovalerylspiramycin II: in data set [1], the “activation of PI3K protein” value is “inhibit the activation of PI3K protein, 4EBP1 protein and mTOR protein”; the “expression” value is “inhibit the expression of AKT protein and S6K1 protein and the expression of their activated proteins”.

For spiramycin, in data set [4], the absolute oral bioavailability is given as 30-40%.

The record behind these values is patent publication US20200405739A1, “MTOR INHIBITOR, PHARMACEUTICAL COMPOSITION AND USE THEREOF” (SHENYANG FUYANG PHARMACEUTICAL TECHNOLOGY CO., LTD., priority 2018, published 2020).
